Reference: US7897636B2, “Sulfamide derivative useful for the treatment of epilepsy” (Janssen Pharmaceutica NV, priority 2007, dated 2011)

Tested on: MES-induced seizure
Assay: Maximal Electroshock Test (MES), anticonvulsant activity
Format: in vivo, CF-1 male albino mice
Description: Anticonvulsant activity was determined using the MES test, run according to the procedure described in detail below. Swinyard E A, Woodhead J H, White H S, Franklin M R. Experimental selection, quantification, and evaluation of anticonvulsants. In Levy R H, et al., eds. Antiepileptic Drugs. 3rd ed. New York: Raven Press, 1989:85-102 CF-1 male albino mice (25-35 g) were randomly selected into control and test groups, with the animals dosed with vehicle or test compound, at varying time-points and concentrations, respectively. On the study date, the mice were dosed by intraperitoneal (i.p.) injection with vehicle (30% Solutol) or test compound (50-250 mg/kg). Seizures were induced by trans-corneal electric shock using a 60-Hz alternating current, 50 mA, delivered for 0.2 sec. The mice in the test groups were subjected to electrical stimulus at time intervals between 15 minutes and 4 hours following administration of test compound. […] The test was complete when the entire course of the convulsion has been observed (typically, less than 1 minute after electrical stimulation). […] The ED50 value of the test compounds was the calculated dose required to block the hind limb tonic-extensor component of the MES-induced seizure in 50% of the rodents tested. […] Representative compounds of the present invention were tested according to the procedure described above, with results as listed in Table 1 below. Results are listed as (number of mice with full body tonic extension prevented)/(total number of mice tested) (@ a given time). ED50 values were determined at the time of peak effect (1 hr, Table 1).

[1] = 100 mg/kg i.p., 1.0 Hrs after dosing
[2] = 100 mg/kg i.p., 2 Hrs after dosing
[3] = 200 mg/kg i.p., 0.25 Hrs after dosing
[4] = 200 mg/kg i.p., 0.50 Hrs after dosing
[5] = 200 mg/kg i.p., 1.0 Hrs after dosing
[6] = 200 mg/kg i.p., 2 Hrs after dosing
[7] = 200 mg/kg i.p., 4 Hrs after dosing

Structure (SMILES) | MES Activity: (number of mice with full body tonic extension prevented)/(total number of mice tested) [1] | MES Activity: (number of mice with full body tonic extension prevented)/(total number of mice tested) [2] | MES Activity: (number of mice with full body tonic extension prevented)/(total number of mice tested) [3] | MES Activity: (number of mice with full body tonic extension prevented)/(total number of mice tested) [4] | MES Activity: (number of mice with full body tonic extension prevented)/(total number of mice tested) [5] | MES Activity: (number of mice with full body tonic extension prevented)/(total number of mice tested) [6] | MES Activity: (number of mice with full body tonic extension prevented)/(total number of mice tested) [7] | ED50 (Mus musculus, ip, 1 h, mice, i.p., at time of peak effect (1 hr), probit analysis, read-out: ED50 (dose required to block the hind limb tonic-extensor component of the MES-induced seizure in 50% of the rodents)) [mg/kg]
NS(=O)(=O)NCc1c[s+]([O-])c2ccccc12 (single isomer, unassigned; (+)) [(+)-enantiomer, N-[(1-oxidobenzo[b]thien-3-yl)methyl]-sulfamide] | 1/4 | 0/4 | 0/3 | 4/5 | 5/5 | 5/5 | 1/5 | 127
NS(=O)(=O)NCc1c[s+]([O-])c2ccccc12 (single isomer, unassigned; (-)) [(−)-enantiomer, N-[(1-oxidobenzo[b]thien-3-yl)methyl]-sulfamide] | 2/4 | 1/4 | 1/4 | 2/5 | 5/5 | 5/5 | 1/5 | 
